Reference: patent US20230075856A1, “CYCLIC SULFAMIDE COMPOUNDS FOR TREATMENT OF HBV” (Assembly Biosciences, Inc., priority 2018, published 2023)
Like-named read-outs stand apart in the source and are kept apart here.

System: HBV viral load production from HepAD38 cells
Assay: Viral production from HepAD38 cells: viral load in supernatant by qPCR of the HBV core sequence
Format: cell-based
Details: 5 days incubation, qPCR of supernatant HBV DNA vs DMSO control, read-out: viral load lowering EC50 (Activity)
How it was run: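 HepAD38 cells seeded at 50,000/well in tetracycline-free medium with 2% FBS, treated with compounds (final top concentration 10 μM) for 5 days at 37 °C. Supernatant HBV DNA quantified by TaqMan qPCR of core sequence against HBV DNA standards, relative to DMSO controls; EC50 by four-parameter logistic fit.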

[1] = Hepatitis B virus, HePAD38, 120 h

SMILES	EC50 [nM]	EC50 [1] [nM]
COc1ccc(CNC(=O)C2CC(C(=O)Nc3ccc(F)c(Cl)c3)N(C)S(=O)(=O)N2)cc1 (single isomer, unassigned) [Compound 717-ISOMER-B, N3-(3-chloro-4-fluoro-phenyl)-N5-[(4-methoxyphenyl)methyl]-2-methyl-1,1-dioxo-1,2,6-thiadiazinane-3,5-dicarboxamide]	50 to 100	–
CN1C(C(=O)Nc2ccc(F)c(Cl)c2)CC(C(=O)NCc2ccccc2)NS1(=O)=O (single isomer, unassigned) [Compound 718-ISOMER-A, N5-benzyl-N3-(3-chloro-4-fluoro-phenyl)-2-methyl-1,1-dioxo-1,2,6-thiadiazinane-3,5-dicarboxamide]	–	< 50
CN1C(C(=O)Nc2ccc(F)c(Cl)c2)CC(C(=O)NCc2ccccc2)NS1(=O)=O (single isomer, unassigned) [Compound 718-ISOMER-B, N5-benzyl-N3-(3-chloro-4-fluorophenyl)-2-methyl-1,1-dioxo-1,2,6-thiadiazinane-3,5-dicarboxamide]	100 to 10000	–
C[C@@H](NC(=O)C1CC(C(=O)Nc2ccc(F)c(Cl)c2)N(C)S(=O)(=O)N1)c1ccccc1 (single isomer, unassigned) [Compound 719-ISOMER-A]	–	< 50
C[C@@H](NC(=O)C1CC(C(=O)Nc2ccc(F)c(Cl)c2)N(C)S(=O)(=O)N1)c1ccccc1 (single isomer, unassigned) [Compound 719-ISOMER-B]	100 to 10000	–
COc1cccc(CNC(=O)C2CC(C(=O)Nc3ccc(F)c(Cl)c3)N(C)S(=O)(=O)N2)c1 (single isomer, unassigned) [Compound 721-ISOMER-A, N3-(3-chloro-4-fluoro-phenyl)-N5-[(3-methoxyphenyl)methyl]-2-methyl-1,1-dioxo-1,2,6-thiadiazinane-3,5-dicarboxamide]	–	< 50
COc1cccc(CNC(=O)C2CC(C(=O)Nc3ccc(F)c(Cl)c3)N(C)S(=O)(=O)N2)c1 (single isomer, unassigned) [Compound 721-ISOMER-B, N3-(3-chloro-4-fluoro-phenyl)-N5-[(3-methoxyphenyl)methyl]-2-methyl-1,1-dioxo-1,2,6-thiadiazinane-3,5-dicarboxamide]	100 to 10000	–
CN1C(C(=O)Nc2ccc(F)c(Cl)c2)CC(C(=O)NCc2ccc(Cl)cc2)NS1(=O)=O (single isomer, unassigned) [Compound 729-ISOMER-A, N3-(3-chloro-4-fluoro-phenyl)-N5-[(4-chlorophenyl)methyl]-2-methyl-1,1-dioxo-1,2,6-thiadiazinane-3,5-dicarboxamide]	–	< 50
CN1C(C(=O)Nc2ccc(F)c(Cl)c2)CC(C(=O)NCc2ccc(Cl)cc2)NS1(=O)=O (single isomer, unassigned) [Compound 729-ISOMER-B, N3-(3-chloro-4-fluoro-phenyl)-N5-[(4-chlorophenyl)methyl]-2-methyl-1,1-dioxo-1,2,6-thiadiazinane-3,5-dicarboxamide]	100 to 10000	–
CN1C(C(=O)Nc2ccc(F)c(Cl)c2)CC(C(=O)NCc2cccc(Cl)c2)NS1(=O)=O (single isomer, unassigned) [Compound 730-ISOMER-A, N3-(3-chloro-4-fluoro-phenyl)-N5-[(3-chlorophenyl)methyl]-2-methyl-1,1-dioxo-1,2,6-thiadiazinane-3,5-dicarboxamide]	–	< 50
CN1C(C(=O)Nc2ccc(F)c(Cl)c2)CC(C(=O)NCc2cccc(Cl)c2)NS1(=O)=O (single isomer, unassigned) [Compound 730-ISOMER-B, N3-(3-chloro-4-fluorophenyl)-N5-[(3-chlorophenyl)methyl]-2-methyl-1,1-dioxo-1,2,6-thiadiazinane-3,5-dicarboxamide]	100 to 10000	–
Cc1c(CNC(=O)C2CC(C(=O)Nc3ccc(F)c(Cl)c3)N(C)S(=O)(=O)N2)cnn1C (single isomer, unassigned) [Compound 740-ISOMER-A, N3-(3-chloro-4-fluoro-phenyl)-N5-[(1,5-dimethylpyrazol-4-yl)methyl]-2-methyl-1,1-dioxo-1,2,6-thiadiazinane-3,5-dicarboxamide]	–	< 50
Cc1c(CNC(=O)C2CC(C(=O)Nc3ccc(F)c(Cl)c3)N(C)S(=O)(=O)N2)cnn1C (single isomer, unassigned) [Compound 740-ISOMER-B, N3-(3-chloro-4-fluoro-phenyl)-N5-[(1,5-dimethylpyrazol-4-yl)methyl]-2-methyl-1,1-dioxo-1,2,6-thiadiazinane-3,5-dicarboxamide]	100 to 10000	–
CCc1nc(CNC(=O)C2CC(C(=O)Nc3ccc(F)c(Cl)c3)N(C)S(=O)(=O)N2)cs1 (single isomer, unassigned) [Compound 742-ISOMER-A, N3-(3-chloro-4-fluoro-phenyl)-N5-[(2-ethylthiazol-4-yl)methyl]-2-methyl-1,1-dioxo-1,2,6-thiadiazinane-3,5-dicarboxamide]	–	100 to 10000
CCc1nc(CNC(=O)C2CC(C(=O)Nc3ccc(F)c(Cl)c3)N(C)S(=O)(=O)N2)cs1 (single isomer, unassigned) [Compound 742-ISOMER-B, N3-(3-chloro-4-fluoro-phenyl)-N5-[(2-ethylthiazol-4-yl)methyl]-2-methyl-1,1-dioxo-1,2,6-thiadiazinane-3,5-dicarboxamide]	< 50	–
CC(C)OC(=O)N1CCC(NC(=O)C2CC(C(=O)Nc3ccc(F)c(Cl)c3)N(C)S(=O)(=O)N2)CC1 (single isomer, unassigned) [Compound 766-ISOMER-A, isopropyl 4-[[5-[(3-chloro-4-fluoro-phenyl)carbamoyl]-6-methyl-1,1-dioxo-1,2,6-thiadiazinane-3-carbonyl]amino]piperidine-1-carboxylate]	–	< 50
CC(C)OC(=O)N1CCC(NC(=O)C2CC(C(=O)Nc3ccc(F)c(Cl)c3)N(C)S(=O)(=O)N2)CC1 (single isomer, unassigned) [Compound 766-ISOMER-B, isopropyl 4-[[5-[(3-chloro-4-fluoro-phenyl)carbamoyl]-6-methyl-1,1-dioxo-1,2,6-thiadiazinane-3-carbonyl]amino]piperidine-1-carboxylate]	50 to 100	–
CN1C(C(=O)Nc2ccc(F)c(Cl)c2)CC(C(=O)NC2CCN(C(=O)OC(C)(C)C)CC2)NS1(=O)=O (single isomer, unassigned) [Compound 767-ISOMER-A, tert-butyl 4-[[5-[(3-chloro-4-fluoro-phenyl)carbamoyl]-6-methyl-1,1-dioxo-1,2,6-thiadiazinane-3-carbonyl]amino]piperidine-1-carboxylate]	–	< 50
CN1C(C(=O)Nc2ccc(F)c(Cl)c2)CC(C(=O)NC2CCN(C(=O)OC(C)(C)C)CC2)NS1(=O)=O (single isomer, unassigned) [Compound 767-ISOMER-B, tert-butyl 4-[[5-[(3-chloro-4-fluoro-phenyl)carbamoyl]-6-methyl-1,1-dioxo-1,2,6-thiadiazinane-3-carbonyl]amino]piperidine-1-carboxylate]	100 to 10000	–
CN1C(C(=O)Nc2ccc(F)c(Cl)c2)CC(C(=O)NC2CCN(c3ccccn3)CC2)NS1(=O)=O (single isomer, unassigned) [Compound 769-ISOMER-A, N3-(3-chloro-4-fluoro-phenyl)-2-methyl-1,1-dioxo-N5-[1-(2-pyridyl)-4-piperidyl]-1,2,6-thiadiazinane-3,5-dicarboxamide]	–	< 50
CN1C(C(=O)Nc2ccc(F)c(Cl)c2)CC(C(=O)NC2CCN(c3ccccn3)CC2)NS1(=O)=O (single isomer, unassigned) [Compound 769-ISOMER-B, N3-(3-chloro-4-fluoro-phenyl)-2-methyl-1,1-dioxo-N5-[1-(2-pyridyl)-4-piperidyl]-1,2,6-thiadiazinane-3,5-dicarboxamide]	100 to 10000	–
CN1C(C(=O)Nc2ccc(F)c(Cl)c2)CC(C(=O)NCc2ccccc2-c2cn(C)cn2)NS1(=O)=O (single isomer, unassigned) [Compound 823-ISOMER-B, N3-(3-chloro-4-fluoro-phenyl)-2-methyl-N5-[[2-(1-methylimidazol-4-yl)phenyl]methyl]-1,1-dioxo-1,2,6-thiadiazinane-3,5-dicarboxamide]	–	100 to 10000
CN1C(C(=O)Nc2ccc(F)c(Cl)c2)CC(C(=O)NC2CCN(C(=O)C3CC3)CC2)NS1(=O)=O (single isomer, unassigned) [Compound 854-ISOMER-A, N3-(3-chloro-4-fluoro-phenyl)-N5-[1-(cyclopropanecarbonyl)-4-piperidyl]-2-methyl-1,1-dioxo-1,2,6-thiadiazinane-3,5-dicarboxamide]	–	< 50
CN1C(C(=O)Nc2ccc(F)c(Cl)c2)CC(C(=O)NC2CCN(C(=O)C3CC3)CC2)NS1(=O)=O (single isomer, unassigned) [Compound 854-ISOMER-B, N3-(3-chloro-4-fluoro-phenyl)-N5-[1-(cyclopropanecarbonyl)-4-piperidyl]-2-methyl-1,1-dioxo-1,2,6-thiadiazinane-3,5-dicarboxamide]	100 to 10000	–
CN1C(C(=O)Nc2ccc(F)c(Cl)c2)CC(C(=O)NC2CCN(c3ncccn3)CC2)NS1(=O)=O (single isomer, unassigned) [Compound 855-ISOMER-A, N3-(3-chloro-4-fluoro-phenyl)-2-methyl-1,1-dioxo-N5-(1-pyrimidin-2-yl-4-piperidyl)-1,2,6-thiadiazinane-3,5-dicarboxamide]	–	< 50
CN1C(C(=O)Nc2ccc(F)c(Cl)c2)CC(C(=O)NC2CCN(c3ncccn3)CC2)NS1(=O)=O (single isomer, unassigned) [Compound 855-ISOMER-B, N3-(3-chloro-4-fluoro-phenyl)-2-methyl-1,1-dioxo-N5-(1-pyrimidin-2-yl-4-piperidyl)-1,2,6-thiadiazinane-3,5-dicarboxamide]	100 to 10000	–
